What was measured:
22Rv1 tumor-bearing mice = assay: Biodistribution in 22Rv1 tumor-bearing mice; settings: for Uptake Blood, Mean / Uptake Bone, Mean / Uptake Heart, Mean / Uptake Kidney, Mean / Uptake Liver, Mean / Uptake Lung, Mean / Uptake Muscle, Mean / Uptake Spleen, Mean / Uptake Tumor (22Rv1), Mean: 0.74 MBq, n = 3; for Clearance profile in the kidneys: within 60 min p.i.
Procedure: (§1) The animal studies were approved by the institutional animal care and use committee of the Chinese PLA General Hospital. Healthy male ICR mice were injected with either a novel radiotracer (37 MBq in 150 μL) or saline (150 μL) for the radiotoxicity evaluation. […] Biodistribution and micro-PET studies were performed on 22Rv1 and PC-3 xenograft models, and 2-PMPA was used as the PSMA blocker (all details are shown in the Supplementary Materials).
BALB/c nude mice (male, 4-6 weeks) were inoculated subcutaneously with […]
100 mm3, the mice underwent biodistribution study and Micro-PET imaging.
The 22Rv1 tumor-bearing mice were injected with each novel radiotracer or […]
[…] Mice were sacrificed at different time points p.i. (10 min, 30 min, 60 min), tumors and interested organs were harvested, weighed and measured by a γ-counter, the results were expressed as the percentage of injected dose per gram (ID%/g).
Table S1. Uptake values for ex vivo tissues of [ 68Ga]Ga-PSMA-Q (0.74 MBq/mice) in 22Rv1 tumor-bearing mice (10, 30 and 60 min p.i., n = 3/time point).

[1] = Partition coefficient, octanol–water system; format: physicochemical; settings: octanol–water (v/v = 1:1), n = 3
Procedure: The partition coefficient of each novel radiotracer was determined using an octanol–water system (v/v = 1:1). The in vitro stability was determined using two systems (PBS and 5% BSA). The Ki value was measured by the NAALADase assay. The 22Rv1 and PC-3 cell lines were used for the cell-binding study and establishment of the tumor-bearing model (detailed information is shown in the Supplementary Materials).
PBS) and reported as log p ± SD. […]

22Rv1 tumors = assay: Micro-PET imaging in 22Rv1 tumor-bearing mice; format: in vivo; settings: 60 min p.i.; for SUVmax of tumor: 22Rv1 tumor, 7.4 MBq
Procedure: as §1
Table S9. Tumor-to-mu scle (T/M) ratio and tumor- to-kidney (T/K) rati o of radiotracers at 60 min p.i.
The Mice bearing 22Rv1 and PC-3 (n = 3/group) xenograft tumors were […]
Co-injection with 2-PMPA (50 μ g) and each novel tracer (7.4 MBq in 150 μL) was used for blocking. Then the mice were anesthetized with 3% (v/v) isoflurane and underwent Micro-PET scans with continuous 1% (v/v) isoflurane. The images were acquired at 60 min p.i.. In comparison, […]
into another group of mice (n = 3), and Micro-PET schedule was performed as […]
Imaging was performed on a Super Nova PET/CT scanner using a 100-mm-transaxial field of view for PET and 110-mm for CT.
Three-dimensional ordered-subsets expectation maximization reconstruction

22Rv1 cells (mild PSMA+) = assay: Cell uptake / binding in 22Rv1 cells; format: cell-based, human; settings: 60 min incubation, 37 °C
Text: Cell lines were kindly provided by the stem cell bank of the Chinese Academy of Sciences. The human prostate cancer epithelial cell lines 22Rv1 (mild PSMA+) and PC-3 (with no PSMA receptor) were used to evaluate the specific cell-binding affinity of the radiotracers, and the results were expressed as percentages of injected activity, IA%/10^6.
Cell Lines and Culture Condition
Cell lines were kindly provided by the stem cell bank, the Chinese Academy of Sciences. The human prostate cancer cell lines 22Rv1 ( mild PSMA positive) and PC3 (PSMA negative) were cultured in RPMI 1640 medium or F12K medium (CORNING, America), supplemented with 10% Fetal Bovine Serum
(GIBCO, The Netherlands) and 1% penicillin-streptomycin (CORNING, America) in a humidified incubator at 37 °C under 5% CO2. Each cell line was passaged when it was at around 80-90% confluence, and harvested using trypsin-ethylenediaminetetraacetic acid (trypsin-EDTA; 0.25% trypsin, 0.02% EDTA, all from KeyGEN BioTECH).
Cells were seeded separately in 24 well plates (1 x 10^5 cells in 1 mL medium/well) and incubated overnight, the medium was changed 2 h before the experiment. For the binding experiments, cells were incubated with novel […]
min, 30 min and 60 min (6 wells/time point). After incubation, the medium was removed and the cells were washed twice with ice-cold phosphate-buffered saline (0.5 mL). Finally, the cells were lysed by NaOH (0.5 M, 0.5 mL). Coincubation of 2-(phosphonomethyl) pentane-1,5-dioic acid […]
(2-PMPA) solution (2 μg/well) and each radiotracer for 60 min was conducted as the blocking experiment. The radioactivity of cells was measured by a γ-counter. The studies were performed in triplicate and the results were reported as the percentage injected activity (IA%/10^6 cells). […]

[2] = Blood pharmacokinetics in male ICR mice; format: in vivo; settings: 7.4 MBq i.v., two-compartment model
Procedure: Injection of novel radiotracers or [68Ga]Ga-PSMA-617 or [68Ga]Ga-PSMA-11 […]
mice (5 mice/group), and the blood sample (5 μL) of each mouse was collected by cutting down the tail end at different time points post injection. The radioactivity of blood samples were measured by a γ-counter and the pharmacokinetics data was calculated using the WinNonlin software.
Figure S3. Time-activity curves of the blood samplesafter injection of 7.4 MBq of [68Ga]Ga-PSMA-4PY (A), [68Ga]Ga-PSMA-Q (B),[68Ga]Ga-PSMA-P (C), [68Ga]Ga-PSMA-617 (D), [68Ga]Ga-PSMA-11 (E), [68Ga]Ga-PSMA-Q-1 (F), [68Ga]Ga-PSMA-Q-2 (G) and [68Ga]Ga-PSMA-Q-3 (H).
(1 picture or pasted object on this page, not shown here)

[3] = biodistribution, 22Rv1 tumor-bearing mice, 60 min p.i.

SMILES | Uptake Blood, Mean (22Rv1 tumor-bearing mice; 10 min p.i.) [ID%/g] | Uptake Bone, Mean (22Rv1 tumor-bearing mice; 10 min p.i.) [ID%/g] | Uptake Heart, Mean (22Rv1 tumor-bearing mice; 10 min p.i.) [ID%/g] | Uptake Kidney, Mean (22Rv1 tumor-bearing mice; 10 min p.i.) [ID%/g] | Uptake Liver, Mean (22Rv1 tumor-bearing mice; 10 min p.i.) [ID%/g] | Uptake Lung, Mean (22Rv1 tumor-bearing mice; 10 min p.i.) [ID%/g] | Uptake Muscle, Mean (22Rv1 tumor-bearing mice; 10 min p.i.) [ID%/g] | Uptake Spleen, Mean (22Rv1 tumor-bearing mice; 10 min p.i.) [ID%/g] | Uptake Tumor (22Rv1), Mean (22Rv1 tumor-bearing mice; 10 min p.i.) [ID%/g] | Uptake Blood, Mean (22Rv1 tumor-bearing mice; 30 min p.i.) [ID%/g] | Uptake Bone, Mean (22Rv1 tumor-bearing mice; 30 min p.i.) [ID%/g] | Uptake Kidney, Mean (22Rv1 tumor-bearing mice; 30 min p.i.) [ID%/g] | Uptake Liver, Mean (22Rv1 tumor-bearing mice; 30 min p.i.) [ID%/g] | Uptake Lung, Mean (22Rv1 tumor-bearing mice; 30 min p.i.) [ID%/g] | Uptake Muscle, Mean (22Rv1 tumor-bearing mice; 30 min p.i.) [ID%/g] | Uptake Spleen, Mean (22Rv1 tumor-bearing mice; 30 min p.i.) [ID%/g] | Uptake Tumor (22Rv1), Mean (22Rv1 tumor-bearing mice; 30 min p.i.) [ID%/g] | Uptake Blood, Mean (22Rv1 tumor-bearing mice; 60 min p.i.) [ID%/g] | Uptake Bone, Mean (22Rv1 tumor-bearing mice; 60 min p.i.) [ID%/g] | Uptake Heart, Mean (22Rv1 tumor-bearing mice; 60 min p.i.) [ID%/g] | also measured
O=C([O-])CN1CCN(CC(=O)[O-])CCN(CC(=O)NCC2CCC(C(=O)NC(Cc3ccc4ccccc4c3)C(=O)NCCCCC(NC(=O)NC(CCC(=O)O)C(=O)O)C(=O)O)CC2)CCN(CC(=O)O)CC1.[68Ga+3] (stereo not shown) [[^68Ga]Ga-PSMA-617, reference compound] | 2.21 | 1.17 | 2.11 | 16.30 | 1.89 | 1.40 | 0.87 | 2.11 | 2.10 | 0.58 | 0.38 | 25.77 | 1.13 | 0.95 | 0.31 | 1.31 | 3.36 | 0.33 | 0.29 | 0.10 | Uptake Heart, Mean (22Rv1 tumor-bearing mice; 30 min p.i.): 1.20 ID%/g; Uptake Kidney, Mean (22Rv1 tumor-bearing mice; 60 min p.i.): 29.78 ID%/g; Uptake Liver, Mean (22Rv1 tumor-bearing mice; 60 min p.i.): 0.51 ID%/g; Uptake Lung, Mean (22Rv1 tumor-bearing mice; 60 min p.i.): 0.33 ID%/g; Uptake Muscle, Mean (22Rv1 tumor-bearing mice; 60 min p.i.): 0.15 ID%/g; Uptake Spleen, Mean (22Rv1 tumor-bearing mice; 60 min p.i.): 0.95 ID%/g; Uptake Tumor (22Rv1), Mean (22Rv1 tumor-bearing mice; 60 min p.i.): 4.27 ± 0.10 ID%/g; Uptake Tumor (22Rv1), Mean (22Rv1 tumor-bearing mice; 60 min p.i., listed as [68Ga]Ga-PSMA-617): 4.27 ID%/g; Tumor-to-kidney (T/K) ratio (22Rv1 tumor-bearing mice; [3]): 0.14 ± 0.01; Tumor-to-muscle (T/M) ratio (22Rv1 tumor-bearing mice; [3]): 28.43 ± 0.84; Clearance profile in the kidneys (22Rv1 tumor-bearing mice): continuously accumulated in the kidneys; Log p pH = 7.4 [1]: −2.54 ± 0.13; SUVmax of tumor (22Rv1 tumors): 0.85 ± 0.14; Tumor-to-muscle ratio (micro-PET) (22Rv1 tumors; 22Rv1 tumor-bearing mice): 20.43 ± 1.06; Uptake in 22Rv1 cells (22Rv1 cells (mild PSMA+)): 4.01 ± 0.42 IA%/10^6; Elimination half-life [2]: 28.46 ± 1.64 min
O=C([O-])CN1CCN(CC(=O)[O-])CCN(CC(=O)NCc2ccc(C(=O)NC(Cc3cnc4ccccc4c3)C(=O)NCCCCC(NC(=O)NC(CCC(=O)O)C(=O)O)C(=O)O)cc2)CCN(CC(=O)O)CC1.[68Ga+3] (stereo not shown) [[^68Ga]Ga-PSMA-Q-3] | 1.68 | 0.67 | 1.87 | 21.45 | 1.53 | 0.83 | 0.72 | 1.12 | 1.88 | 0.72 | 0.33 | 13.88 | 1.18 | 0.53 | 0.40 | 0.94 | 2.77 | 0.34 | 0.23 | 1.11 | Uptake Heart, Mean (22Rv1 tumor-bearing mice; 30 min p.i.): 1.29 ID%/g; Uptake Kidney, Mean (22Rv1 tumor-bearing mice; 60 min p.i.): 2.65 ID%/g; Uptake Lung, Mean (22Rv1 tumor-bearing mice; 60 min p.i.): 0.43 ID%/g; Uptake Muscle, Mean (22Rv1 tumor-bearing mice; 60 min p.i.): 0.19 ID%/g; Uptake Spleen, Mean (22Rv1 tumor-bearing mice; 60 min p.i.): 0.59 ID%/g; Uptake Tumor (22Rv1), Mean (22Rv1 tumor-bearing mice; 60 min p.i.): 3.31 ± 0.29 ID%/g; Uptake Tumor (22Rv1), Mean (22Rv1 tumor-bearing mice; 60 min p.i., listed as [68Ga]Ga-PSMA-Q-3): 3.31 ID%/g; Clearance profile in the kidneys (22Rv1 tumor-bearing mice): washed out rapidly from the kidneys; Log p pH = 7.4 [1]: −2.99 ± 0.33; SUVmax of tumor (22Rv1 tumors): 0.88 ± 0.18; Uptake in 22Rv1 cells (22Rv1 cells (mild PSMA+)): 3.31 ± 0.49 IA%/10^6; Elimination half-life [2]: 25.72 ± 1.87 min
O=C([O-])CN1CCN(CC(=O)[O-])CCN(CC(=O)NCCCCC(=O)NC(Cc2cnc3ccccc3c2)C(=O)NCCCCC(NC(=O)NC(CCC(=O)O)C(=O)O)C(=O)O)CCN(CC(=O)O)CC1.[68Ga+3] (stereo not shown) [[^68Ga]Ga-PSMA-Q-1] | 2.88 | 0.72 | 2.21 | 27.12 | 2.38 | 1.19 | 0.81 | 2.26 | 1.67 | 1.31 | 0.21 | 18.86 | 1.23 | 0.68 | 0.18 | 1.79 | 2.07 | 0.37 | 0.15 | 0.54 | Uptake Kidney, Mean (22Rv1 tumor-bearing mice; 60 min p.i.): 5.70 ID%/g; Uptake Liver, Mean (22Rv1 tumor-bearing mice; 60 min p.i.): 0.45 ID%/g; Uptake Lung, Mean (22Rv1 tumor-bearing mice; 60 min p.i.): 0.26 ID%/g; Uptake Muscle, Mean (22Rv1 tumor-bearing mice; 60 min p.i.): 0.09 ID%/g; Uptake Spleen, Mean (22Rv1 tumor-bearing mice; 60 min p.i.): 0.45 ID%/g; Uptake Tumor (22Rv1), Mean (22Rv1 tumor-bearing mice; 60 min p.i.): 2.38 ± 0.31 ID%/g; Uptake Tumor (22Rv1), Mean (22Rv1 tumor-bearing mice; 60 min p.i., listed as [68Ga]Ga-PSMA-Q-1): 2.38 ID%/g; Clearance profile in the kidneys (22Rv1 tumor-bearing mice): washed out rapidly from the kidneys; Log p pH = 7.4 [1]: −3.09 ± 0.19; SUVmax of tumor (22Rv1 tumors): 0.86 ± 0.09; Uptake in 22Rv1 cells (22Rv1 cells (mild PSMA+)): 3.38 ± 0.50 IA%/10^6; Elimination half-life [2]: 21.17 ± 2.01 min
